Measured values reported in patent US8680065B2, “Oligonucleotides of human endogenous retrovirus 9 (ERV-9) long terminal repeat (LTR) and methods of use” (The United States of America, as represented by the …, priority 2008, dated 2014).

Columns and labels:
[1] = tested on: MDA-231 cells (a breast cancer cell line); assay: Cancer cell proliferation, oligonucleotide in LIPOFECTAMINE, 48 hours, direct cell counting; assay type: cell-based, human; conditions: oligonucleotide 10, 20 or 30 μg/ml, P<0.05
[2] = tested on: HepG2 cells (a hepatocellular carcinoma cell line); assay: as above; assay type: cell-based, human; conditions: oligonucleotide 10, 20 or 30 μg/ml, P<0.05
Description: FIG. 5 is a graph showing the effect of sense and antisense ERV-9 U3 oligonucleotides (SEQ ID NOs: 1 and 2, respectively) on proliferation of HepG2 cells (a hepatocellular carcinoma cell line). Cells (4×10^4) were treated with ERV-9 U3 sense or antisense oligonucleotide formulated in LIPOFECTAMINE™ at the concentrations shown for 48 hours.
To test the effect of the sense and antisense ERV-9 U3 oligonucleotides on proliferation of cancer cells, six different cancer cell lines were selected for transfection studies: HT1080, fibrosarcoma cells (FIG. 1); MDA-231, breast cancer cells (FIG. 2); K562, myelogenous leukemia cells (FIG. 3); LNcaP, prostate cancer cells (FIG. 4); HepG2, hepatocellular carcinoma cells (FIG. 5); and MCF-7, breast cancer cells (FIG. 6). Cells (4×10^4) were treated with ERV-9 U3 sense or antisense oligonucleotide formulated in LIPOFECTAMINE™ at an oligonucleotide concentration of 10, 20 or 30 μg/ml for 48 hours. […] Antisense oligonucleotides specific for Bcl-2 (G3139; TCTCCCAGCGTGCGCCAT; SEQ ID NO: 4), telomerase (GRN163; TAGGGTTAGACAA; SEQ ID NO: 5), and MDM2 ([…]; SEQ ID NO: 6) were also evaluated. […] After 48 hours of oligonucleotide treatment, cell proliferation was assessed by direct cell counting. […]

[3] = tested on: HT1080, MDA-231, K562, LNcaP, HepG2 and MCF-7 cancer cell lines; assay: Cancer cell proliferation, Example 1, summary over six cancer cell lines; assay type: cell-based, human; conditions: for proliferation relative to GFP control oligonucleotide: each of six cancer cell lines, 10, 20 or 30 μg/ml, 48 hours; for proliferation compared with Bcl-2, telomerase and MDM2-specific antisense oligonucleotides: six cancer cell lines, in most instances
Description: To test the effect of the sense and antisense ERV-9 U3 oligonucleotides on proliferation of cancer cells, six different cancer cell lines were selected for transfection studies: HT1080, fibrosarcoma cells (FIG. 1); MDA-231, breast cancer cells (FIG. 2); K562, myelogenous leukemia cells (FIG. 3); LNcaP, prostate cancer cells (FIG. 4); HepG2, hepatocellular carcinoma cells (FIG. 5); and MCF-7, breast cancer cells (FIG. 6). Cells (4×10^4) were treated with ERV-9 U3 sense or antisense oligonucleotide formulated in LIPOFECTAMINE™ at an oligonucleotide concentration of 10, 20 or 30 μg/ml for 48 hours. Green fluorescent protein (GFP) sense oligonucleotide ([…]; SEQ ID NO: 3) was used as a control to measure the non-specific cytotoxicity of phosphorothioate-based oligonucleotides. Antisense oligonucleotides specific for Bcl-2 (G3139; TCTCCCAGCGTGCGCCAT; SEQ ID NO: 4), telomerase (GRN163; TAGGGTTAGACAA; SEQ ID NO: 5), and MDM2 ([…]; SEQ ID NO: 6) were also evaluated. […] After 48 hours of oligonucleotide treatment, cell proliferation was assessed by direct cell counting. Cell proliferation levels were expressed relative to cells transfected with 10 μg/ml GFP control oligonucleotide.

[4] = tested on: human primary keratinocytes; assay: Proliferation of normal human primary cells, 48 hours; assay type: cell-based; conditions: 20 μg/ml, P>0.05
Description: FIG. 13 is a graph showing the effect of ERV-9 U3 sense and antisense oligonucleotides (SEQ ID NOs: 1 and 2, respectively) on human primary keratinocytes. Cells (4×10^4) were transfected with ERV-9 U3 sense or antisense oligonucleotide formulated in LIPOFECTAMINE™ at a concentration of 20 μg/ml for 48 hours. GFP oligonucleotide was used as non-specific phosphorothioate oligonucleotide control.
To determine whether the inhibitory effect of ERV-9 U3 oligonucleotides is specific to cancer cells, human primary keratinocytes (FIG. 13), lymphocytes (FIG. 14), or monocytes (FIG. 15) were treated with ERV-9 U3 sense or antisense oligonucleotide and cell proliferation was evaluated. Cells (4×10^4) were transfected with ERV-9 U3 sense or antisense oligonucleotide (SEQ ID NOs: 1 and 2, respectively) formulated in LIPOFECTAMINE™ at a concentration of 20 μg/ml. GFP oligonucleotide was used as non-specific phosphorothioate oligonucleotide control. After 48 hours, cell proliferation was assessed by direct cell counting. Cell proliferation levels were expressed relative to GFP control.

HT1080 tumor xenografts = assay: Growth of human tumor xenografts in SCID mice; assay type: in vivo; conditions: HT1080 xenograft; for tumor growth, combination treatment with VP16: 50 μg oligonucleotide and 50 ng VP16 once per day; for tumor burden compared to treatment with G3139: 50 μg oligonucleotide per mouse; for tumor growth (tumor size): 50 μg oligonucleotide per mouse injected around tumor once per day
Description: (§1) FIG. 18A is a pair of graphs showing the effect of sense and antisense ERV-9 U3 oligonucleotides (SEQ ID NOs: 1 and 2, respectively) on growth of MDA-231 (top) and HT1080 (bottom) tumor xenografts in SCID mice. Mice were injected with 50 μg of the indicated oligonucleotides once per day for 14 days (MDA-231) or 7 days (HT1080).
(§2) FIG. 18B is a pair of graphs showing the effect of sense and antisense ERV-9 U3 oligonucleotides (SEQ ID NOs: 1 and 2, respectively) on growth of MDA-231 (top) and HT1080 (bottom) tumor xenografts in SCID mice in combination with VP16. Mice were injected with 50 μg of the indicated oligonucleotides and 50 ng of VP16 once per day for 24 days (MDA-231) or 14 days (HT1080).
(§3) CB-17 prkdc(SCID) male, 4- to 6-week-old SCID mice were purchased from the Jackson Laboratory. Cultured cells (MDA-231 or HT1080 cells) were washed with and resuspended in serum-free media. The suspension (2×10^6 cells in 0.2 ml per mouse) was then injected into the chest area of the mice. The mice were monitored by measuring tumor growth and body weight and by general clinical observation. When tumor size reached approximately 4×4 mm, tumor-bearing mice were randomly divided into multiple treatment and control groups (five mice per group). All oligonucleotides, dissolved in PBS, were injected into the surrounding area of the tumor at doses of 50 μg per mouse (approximately 2.5 mg/kg), one time per day, 5 days/week until the tumor size of the control injected tumors reached about 20×20 mm (2×2 cm). The tumors were dissected from mice and weighed with the investigator blinded as to the treatment group. In combination therapy, 50 μg of the oligonucleotide (approximately 2.5 mg/kg) and 50 ng of VP16 (approximately 2.5 μg/kg), both dissolved in PBS, were injected together (one time per day, 5 days/week) into the surrounding area of the tumor to all groups.

MDA-231 tumor xenografts = assay: Growth of human tumor xenografts in SCID mice; assay type: in vivo; conditions: MDA-231 xenograft; for tumor growth, combination treatment with VP16: 50 μg oligonucleotide and 50 ng VP16 once per day; for tumor burden compared to treatment with G3139: 50 μg oligonucleotide per mouse; for tumor growth (tumor size): 50 μg oligonucleotide per mouse injected around tumor once per day
Description: as §1, §2, §3

| Substance | cell proliferation relative to GFP oligonucleotide [1] | cell proliferation relative to GFP oligonucleotide [2] | proliferation relative to GFP control oligonucleotide [3] | proliferation compared with Bcl-2, telomerase and MDM2-specific antisense oligonucleotides [3] | cell proliferation relative to control GFP oligonucleotide [4] | tumor growth, combination treatment with VP16 (HT1080 tumor xenografts) | tumor burden compared to treatment with G3139 (HT1080 tumor xenografts) | tumor growth (tumor size) (HT1080 tumor xenografts) | tumor growth, combination treatment with VP16 (MDA-231 tumor xenografts) | tumor burden compared to treatment with G3139 (MDA-231 tumor xenografts) | tumor growth (tumor size) (MDA-231 tumor xenografts) | tumor cell proliferation, antisense relative to sense oligonucleotide ([3]; tumor cells) |
| --- | --- | --- | --- | --- | --- | --- | --- | --- | --- | --- | --- | --- |
| U3S: ERV-9 LTR U3 sense oligonucleotide CTCAAGGTTTGTAAACACACCAATCAG, phosphorothioate internucleoside linkages at each position (all phosphorothioate, sugars by position and methylation of C not given here) [Oligo U3S] | inhibited cell proliferation better than GFP control oligonucleotide at all three oligonucleotide concentrations | inhibited cell proliferation better than GFP control and G3139, GRN163 and MDM2 antisense oligonucleotides at all three concentration levels | resulted in a significant decrease in proliferation of each cancer cell line tested, relative to GFP control oligonucleotide | inhibited proliferation to a greater extent than the Bcl-2, telomerase and MDM2-specific antisense oligonucleotides | did not inhibit cell proliferation relative to control GFP oligonucleotide | inhibited tumor growth when co-administered with VP16 better than GFP oligonucleotide or G3139 antisense oligonucleotide | had reduced tumor burden for both MDA-231 and HT1080 tumors, although this did not reach statistical significance | inhibited tumor growth better than GFP oligonucleotide or G3139 antisense oligonucleotides | inhibited tumor growth when co-administered with VP16 better than GFP oligonucleotide or G3139 antisense oligonucleotide | had reduced tumor burden for both MDA-231 and HT1080 tumors, although this did not reach statistical significance | inhibited tumor growth better than GFP oligonucleotide or G3139 antisense oligonucleotides |  |
| U3AS: ERV-9 LTR U3 antisense oligonucleotide CTGATTGGTGTGTTTACAAACCTTGAG, phosphorothioate internucleoside linkages at each position (all phosphorothioate, sugars by position and methylation of C not given here) [Oligo U3AS] | inhibited cell proliferation better than GFP control oligonucleotide at all three oligonucleotide concentrations | inhibited cell proliferation better than GFP control and G3139, GRN163 and MDM2 antisense oligonucleotides at all three concentration levels | resulted in a significant decrease in proliferation of each cancer cell line tested, relative to GFP control oligonucleotide | inhibited proliferation to a greater extent than the Bcl-2, telomerase and MDM2-specific antisense oligonucleotides | did not inhibit cell proliferation relative to control GFP oligonucleotide | inhibited tumor growth when co-administered with VP16 better than GFP oligonucleotide or G3139 antisense oligonucleotide | had reduced tumor burden for both MDA-231 and HT1080 tumors, although this did not reach statistical significance | inhibited tumor growth better than GFP oligonucleotide or G3139 antisense oligonucleotides | inhibited tumor growth when co-administered with VP16 better than GFP oligonucleotide or G3139 antisense oligonucleotide | had reduced tumor burden for both MDA-231 and HT1080 tumors, although this did not reach statistical significance | inhibited tumor growth better than GFP oligonucleotide or G3139 antisense oligonucleotides | more potently inhibited tumor cell proliferation (relative to the sense oligonucleotide) |
